These results are taken from patent publication US9782397B2, “Treatment of corneal neovascularization” (IRBM SCIENCE PARK S.P.A., priority 2011, dated 2017).

In data set [1] the test system is corneal neovascularization. Put plainly: Alkali burn (sodium hydroxide caustication) neovascularization model. The data set is classed as in vivo, C57Bl/6 mice. The note with it: for corneal perforation / corneal transparency / incidence of symblepharon and ankyloblepharon / lid anatomy: topical treatment of ocular burns, Examples 4-6. As for the experimental part: Prior to pellet implantation or caustication, animals were anesthetized by intraperitoneal injection of ketamine (120 mg/kg) and xylazine (20 mg/kg) before any surgery.
In fact, the Alkali burn model is considered an inflammation-driven model of neovascularisation, whereby a reduction in inflammatory cell influx is associated with clinical improvement.
Mice were anesthetized by intraperitoneal injection of ketamine (120 mg/kg) and xylazine (20 mg/kg) before any surgery. A 2-mm disc of filter paper saturated with 1 N NaOH was placed onto the right cornea of each mouse for 40 seconds, followed by rinsing extensively with phosphate-buffered saline (PBS) for 2 minutes.
(§1) After taking photographs under the slit lamp, five mice per group were sacrificed 7 days after b-FGF micropellet implantation or caustication, and freshly enucleated eyes were prepared into corneal flat mounts. Immunohistochemical staining was performed with FITC-conjugated CD31/PECAM-1 (rat-anti-mouse antibody; 1:100; Santa Cruz Biotechnology, Santa Cruz, Calif.). Images were taken at 40×, 400× and 600× magnification. To quantify the blood vessels, corneal whole-mounts were covered with mounting medium (Vector, Burlingame, Calif.) and examined by an epifluorescent microscope. For toxicity studies, mice were examined at the slit lamp daily. Animals were sacrificed seven days later and eye bulbs were removed, fixed in 4% paraformaldehyde, cross-sectioned and stained with standard hematoxylin-eosin. At least three to five different corneas were examined; representative data are presented.
(§2) Both slit-lamp and fluorescence microscopy pictures were qualitatively compared for the amount of corneal neovascularization. Gross anatomical alterations such as disruption of epithelial layer, inflammatory cell infiltration, or endothelial cell loss were searched in hematoxylin-eosin cross sections.
Male 6- to 8-week-old C57Bl/6 mice were treated to induce neovascularization using sodium hydroxide caustication (see Experimental Methods)
5 mice per group were used. After taking photographs at the slit lamp, mice were sacrificed. Immunohistochemical staining was performed with FITC-conjugated CD31/PECAM-1 to reveal corneal neovessels.
Lanepitant (WO9907681) was dissolved in PBS. It was administered topically to the eye with the following dose regimen after alkali burn induced neovascularization of the cornea: • 0.4 mg/ml, 6 times a day for 4 days, starting on the day of the tissue injury (“Day 0” to “Day 3”). • 1.6 mg/ml, 6 times a day for 4 days, starting on the day of the tissue injury (“Day 0” to “Day 3”). • 6.4 mg/ml, 6 times a day for 4 days, starting on the day of the tissue injury (“Day 0” to “Day 3”). • PBS Control, 6 times a day for 4 days, starting on the day of the tissue injury (“Day 0” to “Day 3”).
Three mice (for a total of 6 eyes) were treated in each experimental group.
On Day 4, After taking photographs at the slit lamp, mice were sacrificed. Immunohistochemical staining was performed with FITC-conjugated CD31/PECAM-1 to reveal corneal neovessels (FIG. 4A). Following alkali burn, neovessels are expected to grow from the periphery towards the center of the cornea. The extent of the neovascularization is then evaluated. Briefly, corneas were excised, fixed and stained with FITC-conjugated CD31/PECAM-1 to reveal corneal neovessels. […] The neovascular area was then calculated by measuring the Neovascular Area Index (NV Index). This was obtained by calculating the ratio of the neovascular area—obtained by joining together the inner tip of the neovessels—and the total surface of the cornea (i.e. the total area of the cornea).
Befetupitant (WO020008232) was dissolved in DMSO (Dimethyl SulfOxyde).

For data set [2], the system named is corneal neovascularization. The data set is described as above. Type of data set: in vivo, C57Bl/6 mice.
In data set [3] the test system is growth of capillary vessels. The settings on record: slow release pellets in avascular cornea of rabbits; cited from earlier work.
The test system of the next data set is endothelial cells. The settings on record: in vitro; cited from earlier work.
Data set [4] deals with CNV. The note with it: in vivo; cited from earlier work.
The test system of data set [5] is corneal neovascularization. Briefly: b-FGF pellet implantation angiogenesis model (mouse corneal micropocket). Type of data set: in vivo, C57Bl/6 mice. The note with it: 1 mg/ml topical, 4 times per day for 1 week. How it is done: Male 6- to 8-week-old C57Bl/6 mice (Taconic Farms, Germantown, N.Y.) were used in experiments for Examples 1 to 3. Male 6- to 8-week-old C57Bl/6 mice (Charles River Lab, Calco, Milan, Italy) were used in experiments for Examples 4-6. Prior to pellet implantation or caustication, animals were anesthetized by intraperitoneal injection of ketamine (120 mg/kg) and xylazine (20 mg/kg) before any surgery.
b-FGF Pellet Implantation Angiogenesis Model
This model was employed to assess the effect of pharmaceutically active substances on the angiogenesis component of CNV.
Sustained release b-FGF micropellets (40 ng/pellet) were prepared as described in Azar D T, Am Ophthalmol Soc 2006; 104:264-302.
Briefly, the pellets were implanted through half thickness linear incisions at the center of cornea using a disposable 30 degrees microknife (F.S.T., Foster City, Calif., USA). Lamellar pocket incisions were then made parallel to the corneal plane using a Von Graefe knife (F.S.T., Foster City, Calif., USA) and advanced to the temporal limbus at lateral canthal area. The pellets were positioned into the pocket 1.0 mm apart from the limbal vascular arcade in temporal side, and tetracycline ophthalmic ointment was applied to the eye after pellet implantation to prevent post surgical infections.
as §1
Both slit-lamp and fluorescence microscopy pictures were qualitatively compared for the amount of corneal neovascularization. Gross anatomical alterations such as disruption of epithelial layer, inflammatory cell infiltration, or endothelial cell loss were searched in hematoxylin-eosin cross sections. […]
Following b-FGF pellet implantation, neovessels are expected to grow from the limbal vessels (i.e. from the periphery of the cornea), towards the pellet, which is placed in the avascular cornea. The extent of neovascularisation is then evaluated.

A further data set has as its system healthy cornea. Briefly: Toxicity following topical application in healthy eyes. The data set is classed as in vivo, C57Bl/6 mice. As for the experimental part:
as §1, §2
Fosaprepitant toxicity was tested on the healthy cornea by administering to 3 healthy C57Bl/6 mice fosaprepitant (purchased from Universal Drug Store, Canada and diluted as per technical sheet instructions with 0.9% NaCl solution to reach a final concentration of 1 mg/ml) at the concentration of 1 mg/ml in the conjunctival sac 4 times per day for 1 week. In vivo corneal biomicroscopy imaging and hematoxylin eosin ocular cross sections were checked as markers for toxicity.

Data set [6] deals with CNV. The note with it: humans, topical administration; cited from earlier work.
[7] abbreviates: increasing dose 0.4, 1.6, 6.4 mg/ml topical, 6 times a day for 4 days, Day 4.
Setting [8] is: 1 mg/ml topical, 4 times per day for 1 week, versus placebo.

Entries after “also recorded” stand apart in the source; their conditions may differ. Ends that are not written are not given here.

In the case of `COc1ccccc1CN(C[C@@H](Cc1c[nH]c2ccccc12)NC(=O)CN1CCC(N2CCCCC2)CC1)C(C)=O` [lanepitant], the “Neovascular Area Index (NV Index)” value in data set [1] (6.4 mg/ml topical, 6 times a day for 4 days, compared to vehicle) is “statistically significant reduction”. The “anatomy of the eyelids” value in data set [1] (0.4, 1.6, 6.4 mg/ml topical, 6 times a day for 4 days, Day 4, versus vehicle) is recorded as “appeared better preserved”. The corneal transparence entry in data set [1] (increasing dose 0.4, 1.6, 6.4 mg/ml topical, 6 times a day for 4 days from day of injury, Day 4, versus vehicle (PBS)) is “increased corneal transparence”. For the same compound, in data set [1] (setting [7]), the “Neovascular Area Index (NV Index)” value is given as “progressively reduced” and the “corneal neovessels (CD31/PECAM-1)” value is listed as “progressively reduced; also recorded: reduces corneal neovascularization”. In data set [1] (pre-treatment 1.6 mg/ml versus 1.6 mg/ml started on day of injury), the “effect on neovascularization compared to the same dose administered after the tissue injury” value is listed as “increased effect”. Moreover, in data set [1], the corneal perforation entry is on record as “reduced”; the corneal transparency result was “increased”; the “incidence of symblepharon and ankyloblepharon” value is recorded as “reduced”; the lid anatomy entry is on record as “appeared better preserved”. Moreover, the “Cornea Neovascular Index” value in data set [2] (pre-treatment: 1.6 mg/ml topical, 6 times a day from before the injury through Day 3, day 4) was “statistically significant reduction”. In addition, the corneal neovascularization entry in data set [2] (pre-treatment: 1.6 mg/ml topical, 6 times a day from before the injury through Day 3, day 4, versus vehicle) is listed as “appeared reduced; also recorded: reduces corneal neovascularization”.

In the case of `Cc1ccccc1-c1cc(N2CCOCC2)ncc1N(C)C(=O)C(C)(C)c1cc(C(F)(F)F)cc(C(F)(F)F)c1` [befetupitant], in data set [1] (0.4 mg/ml topical, 3 times a day for 9 days, compared to vehicle (DMSO)), the “Corneal Neovascular Index” value is given as “statistically significant reduction”. In data set [1], the corneal perforation entry is listed as “reduced”; the corneal transparency result is listed as “increased”; the “incidence of symblepharon and ankyloblepharon” value was “reduced”; the lid anatomy entry is “appeared better preserved”. For the same compound, the “Corneal Neovascular Index” value in data set [2] (1.6 mg/ml topical, 3 times a day for 9 days, compared to vehicle (DMSO)) is “statistically significant reduction”. Moreover, the “corneal neovessels (CD31/PECAM-1)” value in data set [2] (increasing doses 0.4, 1.6 mg/ml in DMSO, topical, 3 times a day for 9 days, day 9) was “reduced; also recorded: reduces corneal neovascularization”.

On to “Substance P: C-amidated decapeptide of the tachykinin family; principal receptor NK-1 (RPKPQQFFGLM-NH2; UniProt P20366 58-68, looked up)”, for which, in data set [3], the “vessel growth in the cornea” value is given as “induced a marked neovascularization”. Further, the “proliferation of endothelial cells” value in the data set on endothelial cells is reported as “increased proliferation”.

For the compound `CC(=O)OCC(=O)[C@@]1(O)CC[C@H]2[C@@H]3CCC4=CC(=O)CC[C@]4(C)C3=CC[C@@]21C` [anecortave acetate], the “efficacy in animal models of CNV” value in the data set on CNV [4] was “effective”.

With `C[C@@H](O[C@H]1OCCN(Cc2nc(O)n(P(=O)(O)O)n2)[C@H]1c1ccc(F)cc1)c1cc(C(F)(F)F)cc(C(F)(F)F)c1` [fosaprepitant, [3-{[(2R,3S)-2-[(1R)-1-[3,5-bis(trifluoromethyl)phenyl]ethoxy]-3-(4-fluorophenyl)morpholin-4-yl]methyl}-5-oxo-2H-1,2,4-triazol-1-yl]phosphonic acid], the “length of the vessels” value in data set [5] (slit lamp, 7 days after implantation) was “appeared reduced”. The “area of normally avascular cornea invaded by neovessels” value in data set [5] (versus placebo) and in data set [1] (setting [8]) was “smaller” throughout. Besides, the “density of vascular ramifications (number of vascular branches per surface unit)” value in data set [5] (versus placebo) and in data set [2] (setting [8]) was “reduced” in each case. In addition, the “corneal neovascularization (slit lamp, CD31/PECAM-1 whole mounts)” value in data set [5] (conjunctival sac, 7 days after implantation, versus placebo (PBS)) is “less neovascularization; also recorded: reduces corneal neovascularization”. Further, the “alteration of corneal epithelium, stroma or endothelium at slit lamp observation” value with healthy cornea (1 mg/ml topical, 4 times per day, up to 7 days, healthy corneas) is given as “No alteration”. In the data set with healthy cornea (1 mg/ml topical, 4 times per day, 7 days), the “hematoxylin-eosin staining of eyeball cross-sections (epithelium, stroma, endothelium)” value is recorded as “no anatomical alteration was detected”. Further, the “toxicity to the cornea” value with healthy cornea (topical application (FIG. 3)) is “not toxic”. Moreover, the “corneal neovascularization (slit lamp, epifluorescent microscopy)” value in data set [2] (1 mg/ml topical, 4 times per day for 1 week, 7 days after caustication, versus placebo (PBS)) is listed as “remarkably reduced; also recorded: reduces corneal neovascularization”. Also, the corneal transparency entry in data set [2] (1 mg/ml topical, 4 times per day for 1 week, versus placebo-treated corneas) is listed as “much improved”.

Regarding “bevacizumab: anti-VEGF monoclonal antibody”, in the data set with CNV [6], the “inhibiting CNV” value is reported as “some effect”.
